Data: paper PMC6694155, “PTPσ inhibitors promote hematopoietic stem cell regeneration” (Nature Communications, 2019)
Where “and” joins values, the source holds several entries; their conditions need not be identical. Equal values may be shown once. Entries after “also recorded” stand apart in the source; their conditions may differ.

Assays:
[1] = system: C57BL/6 mice; test: Survival study after 750 cGy TBI; type: in vivo, mouse
Protocol: For survival studies, 10-week-old female C57BL/6 mice were irradiated with 750 cGy TBI, which is lethal for ~50% of C57BL/6 mice by day + 30 (LD50/30), using a Shepherd Cesium-137 irradiator. Twenty four hours post irradiation, mice were administered daily subcutaneous injections of 5 mg/kg DJ001 or DJ009, or vehicle in a volume of 100 μL for 10 days. DJ001 or DJ009 injections were prepared in PBS, 0.5% Tween 80, and 10% DMSO. Corresponding vehicle injections contained PBS, 10% DMSO, and 0.5% Tween 80. PB complete blood counts were measured using a Hemavet 950 instrument (Drew Scientific) at day + 10 post irradiation. For hematopoietic analysis, BM cells were collected at day + 10 post irradiation. To study whether DJ001 increased survival rates through activation of RAC signaling, the RAC inhibitor, EHT1864 (Selleckchem), was dissolved in PBS and administered intraperitoneally, 40 mg/kg every other day, to 750 cGy-irradiated mice until day + 10.

[2] = molecular target: T1, PTPσ (Mus musculus, UniProt B0V2N1); test: PTPσ enzymatic assay (modified Malachite Green / Tyrosine Phosphatase Assay Kit); type: biochemical; settings: for PTPσ inhibitory activity (in words): direct PTPσ enzymatic assay; for Supplementary Figure 5b: PTPσ enzymatic assay signal: replicates
T1 sequence (B0V2N1 1326-1907): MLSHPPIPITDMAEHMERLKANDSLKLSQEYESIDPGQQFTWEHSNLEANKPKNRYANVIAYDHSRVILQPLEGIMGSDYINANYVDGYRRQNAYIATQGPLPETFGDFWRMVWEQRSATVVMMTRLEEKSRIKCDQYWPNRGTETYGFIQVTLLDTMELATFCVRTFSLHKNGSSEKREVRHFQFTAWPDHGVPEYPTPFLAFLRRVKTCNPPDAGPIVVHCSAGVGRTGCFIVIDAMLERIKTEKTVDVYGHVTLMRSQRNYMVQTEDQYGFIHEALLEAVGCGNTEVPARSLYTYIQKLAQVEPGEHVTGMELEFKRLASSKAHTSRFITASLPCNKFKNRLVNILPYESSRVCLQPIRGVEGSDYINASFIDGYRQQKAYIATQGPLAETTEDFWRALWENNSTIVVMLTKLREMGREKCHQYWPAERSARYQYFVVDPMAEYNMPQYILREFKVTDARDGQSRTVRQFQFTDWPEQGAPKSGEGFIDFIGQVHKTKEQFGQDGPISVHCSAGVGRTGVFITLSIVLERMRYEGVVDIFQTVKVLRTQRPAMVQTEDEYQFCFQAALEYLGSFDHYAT
Protocol: The two intracellular catalytic domains (D1 and D2) of Ptprs were cloned into a pET28a vector, overexpressed in Escherichia coli BL21 and purified. Enzymatic activity of PTPσ was assayed using a modified version of the Malachite Green Assay[66] and the Tyrosine Phosphatase Assay Kit (Promega Corporation). Unless stated otherwise, standard assays were carried out using 50 nM PTPσ protein in 1× Buffer (10 mM Tris, 5 mM MgCl2, 10 mM NaCl, 0.02% Tween) and Tyr Phosphopeptide as substrate (200 μM for Fig. 1b, c, 50–1200 μM in Fig. 1c). Purified catalytic domain 1 and domain 2 of PTPσ were pre-incubated with test compounds 3071, 5205, 5075, or control for 15 min in a 96-well plate before the addition of Tyr Phosphopeptide (DADE(pY)LIPQQG). For IC50 determination, rates normalized relative to uninhibited controls (dimethyl sulfoxide (DMSO)) were plotted against compound concentration and fitted using a four-parameter nonlinear regression curve fit ((y = [(A − D) (1 + {xC − 1}B) − 1] + D) (Prism 6.0, Graphpad Software). For mechanism studies and determination of the enyzme’s Km and Vmax, data were analyzed using a nonlinear regression fit according to the classical Michaelis–Menten kinetics model, Y = Vmax*X/(Km + X) (Prism 6.0, Graphpad Software).

[3] = 750 cGy TBI, DJ001 daily day +1 to +10, through day +40

Compound: O=C(/C=C\Nc1cccc([N+](=O)[O-])c1)c1ccccc1 [DJ001, (Z)-3-((3-nitrophenyl)amino)-1-phenylprop-2-en-1-one]
- percent survival [1, 3]: 93%
- survival, mice alive of total (Fig. 2f) [1, 3]: 27/29 and 27 of 29
- survival, mice alive of total (Fig. 3f) ([1]; 750 cGy, 10-day treatment, EHT1864 40 mg/kg i.p. every other day): 11/15
- Figure 3f: survival event per mouse (1 = event, 0 = censored) ([1]; Days Post-irradiation 14): 1
- Figure 3f: survival event per mouse (1 = event, 0 = censored) ([1]; Days Post-irradiation 17): 1
- Figure 3f: survival event per mouse (1 = event, 0 = censored) ([1]; Days Post-irradiation 18): 1
- survival source data, event code per mouse ([1]; Days Post-irradiation 18): 1
- Figure 3f: survival event per mouse (1 = event, 0 = censored) ([1]; Days Post-irradiation 20): 1
- Figure 3f: survival event per mouse (1 = event, 0 = censored) ([1]; Days Post-irradiation 30): 0
- survival source data, event code per mouse ([1]; Days Post-irradiation 40): 0
- PTPσ inhibitory activity (in words) [2]: confirmed the inhibitory effect
- PTPσ inhibitory activity (in words) ([2]; listed as 5483071): strong inhibitory activity

Compound: O=C(/C=C\Nc1cc(F)cc(F)c1)c1ccccc1 [DJ009, (Z)-3-((3,5-difluorophenyl)amino)-1-phenylprop-2-en-1-one]
- survival of irradiated C57BL/6 mice (in words) ([1]; 750 cGy TBI, 5 mg/kg daily for 10 days): significantly increased survival
- survival, mice alive of total (Supplementary Fig. 5f) ([1]; 750 cGy, 5 mg/kg DJ009 daily for 10 d): 24/24
- Supplementary Figure 5f: survival event per mouse (1 = event, 0 = censored) ([1]; Days post-radiation 30): 0
- PTPσ inhibitory activity (in words) [2]: strongly inhibited PTPσ activity; also recorded: strong PTPσ inhibitory
- Supplementary Figure 5b: PTPσ enzymatic assay signal ([2]; inhibitor 0.0122 uM): 0.21 and 0.203 (2×)
- Supplementary Figure 5b: PTPσ enzymatic assay signal ([2]; inhibitor 0.049 uM): 0.201 and 0.209 and 0.211
- Supplementary Figure 5b: PTPσ enzymatic assay signal ([2]; inhibitor 0.09 uM): 0.199 and 0.194 and 0.195
- Supplementary Figure 5b: PTPσ enzymatic assay signal ([2]; inhibitor 0.19 uM): 0.178 and 0.174 and 0.176
- Supplementary Figure 5b: PTPσ enzymatic assay signal ([2]; inhibitor 0.39 uM): 0.161 and 0.165 and 0.164
- Supplementary Figure 5b: PTPσ enzymatic assay signal ([2]; inhibitor 0.78 uM): 0.162 and 0.166 and 0.165
- Supplementary Figure 5b: PTPσ enzymatic assay signal ([2]; inhibitor 1.56 uM): 0.16 and 0.163 and 0.158
- Supplementary Figure 5b: PTPσ enzymatic assay signal ([2]; inhibitor 3.125 uM): 0.154 and 0.159 and 0.16
- Supplementary Figure 5b: PTPσ enzymatic assay signal ([2]; inhibitor 6.25 uM): 0.157 and 0.162 and 0.156
